Here are results for 2 compounds from publication PMC13340911 (Archives of biochemistry and biophysics, 2025).

The target of experiment [1] is T1, Nocturnin (NOCT) (Homo sapiens, UniProt Q9UK39, N149A).
T1 sequence (Q9UK39 122-431 N149A): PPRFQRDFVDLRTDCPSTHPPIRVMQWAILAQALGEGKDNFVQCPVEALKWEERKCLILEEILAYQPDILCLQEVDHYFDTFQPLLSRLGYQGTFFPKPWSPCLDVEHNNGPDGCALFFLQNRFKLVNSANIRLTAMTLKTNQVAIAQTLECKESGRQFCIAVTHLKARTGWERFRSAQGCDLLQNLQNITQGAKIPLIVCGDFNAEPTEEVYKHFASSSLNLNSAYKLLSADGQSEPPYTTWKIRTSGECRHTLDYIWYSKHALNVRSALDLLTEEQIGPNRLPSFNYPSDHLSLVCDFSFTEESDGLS
The experiment in a line: NADPH intrinsic fluorescence titration. Type of experiment: binding.

Experiment [2] has as its target T2, Nocturnin (NOCT) (Homo sapiens, UniProt Q9UK39, H286N).
T2 sequence (Q9UK39 122-431 H286N): T1 sequence (Q9UK39 122-431 N149A) with A28N, H165N
The experiment can be described thus: NADPH intrinsic fluorescence titration. Type of experiment: binding.

Experiment [3] has as its target T3, Nocturnin (NOCT) (Homo sapiens, UniProt Q9UK39, H414N).
T3 sequence (Q9UK39 122-431 H414N): T1 sequence (Q9UK39 122-431 N149A) with A28N, H293N
The experiment in a line: NADPH intrinsic fluorescence titration. Type of experiment: binding.

Experiment [4] deals with T4, Nocturnin (NOCT) (Homo sapiens, UniProt Q9UK39).
T4 sequence (Q9UK39 122-431): T1 sequence (Q9UK39 122-431 N149A) with A28N
The experiment can be described thus: NADPH intrinsic fluorescence titration. Type of experiment: binding.

For experiment [5], the target named is T4, Nocturnin (NOCT). The experiment can be described thus: steady-state phosphatase kinetics of purified NOCT. Type of experiment: biochemical.

Residue numbers refer to the chain shown, from its start. pKd: −log10 of the molar value.

Turning to `NC(=O)C1=CN([C@@H]2O[C@H](COP(=O)(O)OP(=O)(O)OC[C@H]3O[C@@H](n4cnc5c(N)ncnc54)[C@H](OP(=O)(O)O)[C@@H]3O)[C@@H](O)[C@H]2O)C=CC1` [NADPH], the pKd (in general, the Kd on a negative log10 scale, so that one unit is a factor of ten) on Nocturnin (NOCT) [1] is 3.33; on Nocturnin (NOCT) [2] it was 3.66; at Nocturnin (NOCT) [3], 3.47; at Nocturnin (NOCT) [4], 3.51.
Turning to `NC(=O)c1ccc[n+]([C@@H]2O[C@H](COP(=O)(O)OP(=O)(O)OC[C@H]3O[C@@H](n4cnc5c(N)ncnc54)[C@H](OP(=O)(O)O)[C@@H]3O)[C@@H](O)[C@H]2O)c1` [NADP^+], at Nocturnin (NOCT) [5], the “steady-state phosphatase kinetics of purified NOCT (malachite green); value is k” value is reported as 78.
